Data from patent US11292782B2, “Diarylhydantoin compounds and methods of use thereof” (Nuvation Bio Inc., priority 2018, dated 2022).
pEC50, pIC50: −log10 of the molar value. Where two headings read alike, the source gives them in different places.

Key:
Format in all cases: cell-based
[1] = molecular target: T1, Human AR (Homo sapiens (Human), UniProt P10275); assay: AR agonist assay (GRE-LUC luciferase, transfected HEK-293 cells, test article alone); settings: HEK-293 transfected with human AR, read-out: AR Agonist IC50
T1 sequence (P10275 whole entry): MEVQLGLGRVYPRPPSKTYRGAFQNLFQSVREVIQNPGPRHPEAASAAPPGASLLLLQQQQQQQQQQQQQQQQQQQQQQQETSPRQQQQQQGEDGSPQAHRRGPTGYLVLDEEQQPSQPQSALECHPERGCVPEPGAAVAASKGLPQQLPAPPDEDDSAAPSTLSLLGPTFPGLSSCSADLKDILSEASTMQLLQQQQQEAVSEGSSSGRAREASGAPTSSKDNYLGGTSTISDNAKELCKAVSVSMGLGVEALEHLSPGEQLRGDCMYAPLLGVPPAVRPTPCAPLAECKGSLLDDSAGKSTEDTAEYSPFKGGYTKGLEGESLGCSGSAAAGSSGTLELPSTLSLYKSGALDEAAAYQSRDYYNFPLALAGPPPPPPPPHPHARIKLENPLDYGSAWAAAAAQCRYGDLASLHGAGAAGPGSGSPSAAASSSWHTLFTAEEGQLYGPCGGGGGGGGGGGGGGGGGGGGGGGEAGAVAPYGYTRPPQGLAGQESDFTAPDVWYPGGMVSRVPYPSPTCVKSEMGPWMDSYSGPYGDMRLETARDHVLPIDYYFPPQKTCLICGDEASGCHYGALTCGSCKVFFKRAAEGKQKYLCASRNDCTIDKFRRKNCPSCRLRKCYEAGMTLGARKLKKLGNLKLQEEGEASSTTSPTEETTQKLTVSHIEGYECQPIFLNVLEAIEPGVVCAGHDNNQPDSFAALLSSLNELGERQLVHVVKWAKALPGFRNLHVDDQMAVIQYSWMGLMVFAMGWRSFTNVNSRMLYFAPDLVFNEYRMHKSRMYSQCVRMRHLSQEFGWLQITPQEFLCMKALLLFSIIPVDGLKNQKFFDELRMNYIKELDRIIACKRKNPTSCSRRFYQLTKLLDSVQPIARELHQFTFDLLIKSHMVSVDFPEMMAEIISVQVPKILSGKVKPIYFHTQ
Procedure: (§1) Human AR cDNA cloned into pCMV vector, GRE-LUC, and CMV-renilla-LUC were used to transfect cells. HEK-293 cells (ATCC) were plated at 120,000 cells per well of a 24 well plate in DME+5% csFBS (Fisher Scientific, Waltham, Mass.). The cells were transfected using Lipofectamine (Life Technologies, Carlsbad, Calif.) with 0.25 μg GRE-LUC, 0.010 μg CMV-LUC (renilla luciferase) and 25 ng of the AR. […] Luciferase assay was performed 48 hrs after transfection. Firefly luciferase assay values were normalized to renilla luciferase values and were graphed using graphpad prism software (La Jolla, Calif.). […] The IC50 or EC50 values were determined using non-linear regression and […] logistics fitting.

[2] = molecular target: T1, Human AR; assay: AR antagonist assay (GRE-LUC luciferase, transfected HEK-293 cells, with 0.1 nM R1881); settings: for pIC50: with 0.1 nM R1881; for inhibition at 1 µM: HEK293
Procedure: as §1

[3] = system: LNCaP-abl cells; assay: Cell proliferation assay, LNCaP-abl (CellTiter-Glo); settings: 72 h, 3 days; for activity at 3 µM: read-out: cell proliferation, % of vehicle at 3 μM; for activity at 10 µM: read-out: cell proliferation, % of vehicle at 10 μM
Procedure: (§2) LNCaP-abl (3,000 cells/well, received from Dr. Myles Brown, Dana Farber Cancer Institute), 22RV1 (1,000 cells/well), LNCaP (5,000 cells/well), or COS (3,000 cells/well) cells were plated in 96 well plates in 50 μl RPMI+10% FBS (Fisher Scientific, Waltham, Mass.). LNCaP, COS, and 22RV1 cells were obtained from ATCC. Cells were treated in RPMI+10% FBS with test articles, ranging from 1 nM to 10 μM. Three days later, viable cells (LNCaP-abl, 22RV1, and COS) were measured by CellTiter-Glo assay (Promega, Madison, Wis.). For LNCaP cells, medium containing test article was changed after 3 days of treatment, and after an additional 3 days of culture, viable cells were measured by CellTiter-Glo assay.
(§3) The LNCaP cell line is androgen responsive with AR and PSA expression. It contains a T877A mutation in the AR. The 22RV1 cell line is positive for AR and PSA with additional AR splice variants and is insensitive to androgen for cell proliferation. The LNCaP-abl cell line expresses both AR and GR but is insensitive to androgen for cell proliferation. COS-7 is used as an AR negative cell line in this experiment.

[4] = molecular target: GR (Homo sapiens (Human), UniProt P04150); assay: GR antagonist assay (GRE-LUC luciferase, transfected COS-7 cells, with 0.1 nM dexamethasone); settings: in the presence of 0.1 nM dexamethasone; for GR antagonist assay, % of vehicle: 10 μM
Chain of GR (P04150 whole entry): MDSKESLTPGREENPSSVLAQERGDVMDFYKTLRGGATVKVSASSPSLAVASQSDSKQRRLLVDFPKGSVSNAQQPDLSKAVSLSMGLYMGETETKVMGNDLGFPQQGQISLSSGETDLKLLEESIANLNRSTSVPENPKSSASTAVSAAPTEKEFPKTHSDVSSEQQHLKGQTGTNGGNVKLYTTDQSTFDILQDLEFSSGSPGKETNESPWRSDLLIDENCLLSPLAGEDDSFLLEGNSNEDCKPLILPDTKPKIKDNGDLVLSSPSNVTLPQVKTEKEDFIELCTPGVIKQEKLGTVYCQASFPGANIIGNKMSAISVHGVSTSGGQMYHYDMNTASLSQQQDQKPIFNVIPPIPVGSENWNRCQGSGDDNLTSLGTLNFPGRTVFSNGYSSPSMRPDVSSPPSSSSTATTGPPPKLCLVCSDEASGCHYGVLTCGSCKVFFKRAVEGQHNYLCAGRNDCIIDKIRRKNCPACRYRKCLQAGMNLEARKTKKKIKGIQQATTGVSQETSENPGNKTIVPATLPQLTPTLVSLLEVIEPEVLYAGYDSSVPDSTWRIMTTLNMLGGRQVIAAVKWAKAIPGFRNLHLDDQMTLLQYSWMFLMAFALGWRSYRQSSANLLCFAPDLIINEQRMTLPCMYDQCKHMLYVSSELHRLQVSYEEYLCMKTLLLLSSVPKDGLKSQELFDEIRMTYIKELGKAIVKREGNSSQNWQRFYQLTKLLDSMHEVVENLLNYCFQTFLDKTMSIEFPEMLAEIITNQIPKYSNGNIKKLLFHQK
Procedure: COS-7 cells (ATCC, Manassas, Va.) were plated in 24 well plates in DME+5% csFBS without phenol red at 70,000 cells/well. Once the cells attached to the plates (typically after overnight incubation after plating), they were transfected in OPTIMEM medium (Life Technologies) using lipofectamine reagent (Life Technologies) with 0.25 μg GRE-LUC, 25 ng pCR3.1 GR, and 10 ng CMV-renilla LUC per well. Twenty-four hours after transfection, the cells were fed with DME+5% csFBS without phenol red (Fisher Scientific, Waltham, Mass.) and treated with the test compounds (1 pM to 10 μM dose range) in the presence of 0.1 nM dexamethasone (Sigma, St. Louis, Mo.). Sixteen to twenty-four hours after treatment, a luciferase assay was performed using the Dual Luciferase assay kit (Promega, Madison, Wis.). Firefly luciferase values were normalized to Renilla luciferase numbers.

[5] = system: COS-7 cells; assay: Cell proliferation assay, COS-7 (CellTiter-Glo); settings: 3 days
Procedure: as §2, §3

[6] = system: 22RV1 cells; assay: Cell proliferation assay, 22RV1 (CellTiter-Glo); settings: 3 days
Procedure: as §2, §3

[7] = system: MR49F cells; assay: Cell proliferation assay, MR49F enzalutamide-resistant LNCaP cells (SRB); settings: six days
Procedure: The outer wells of the 96 well plates were not used for treatment due to potential evaporation. Cells were treated with selected doses of the compounds with the final concentration of DMSO kept at 0.1%. The cells were re-treated three days later. At the end of six days of treatment, the cells were fixed using 40% w/v trichloroacetic acid and a […] (SRB) assay was performed to determine the cell viability.

[8] = system: LNCaP cells; assay: Cell proliferation assay, LNCaP (CellTiter-Glo); settings: 6 days
Procedure: as §2, §3

[9] = molecular target: GFP-AR (Homo sapiens (Human), UniProt P10275)
Chain of GFP-AR (P10275 whole entry, looked up): as the sequence (P10275 whole entry) above
Procedure: COS cells plated in chamber slides in DME+5% csFBS without phenol red were transfected with […] GFP-AR using lipofectamine reagent.

[10] = system: TMPRSS2 expression in LNCaP cells; assay: AR activity assay: TMPRSS2 gene expression in LNCaP cells (realtime PCR); settings: 1 and 10 μM, in the presence of 0.1 nM R1881
Procedure: (§4) LNCaP (ATCC) or LNCaP-EnzR (MR49F was received from Dr. Martin Gleave, University of British Columbia) cells were plated in 96 well plates at 15,000-20,000 cells/well in RPMI+1% csFBS without phenol red. Cells were treated 2 days after plating and harvested 18 hours after treatment (for TMPRSS2) or 24 hours after treatment (for PSA and FKBP5). RNA was isolated (cells to ct kit, Life Technologies), cDNA synthesized (cells to ct kit), and expression of TMPRSS2, PSA or FKBP5 and expression of GAPDH were measured using realtime PCR primers and probes (TaqMan probes, Life Technologies) by realtime PCR (ABI 7900, Life Technologies). Relative expression was calculated using ddct method.

[11] = system: TMPRSS2 expression in LNCaP-EnzR cells; assay: AR activity assay: TMPRSS2 gene expression in LNCaP-EnzR (MR49F) cells (realtime PCR); settings: enzalutamide resistant LNCaP-EnzR cells, 1 and 10 μM
Procedure: as §4

SMILES | pEC50 [1] | pIC50 [2] | activity at 3 µM [3] [%] | activity at 10 µM [3] [%] | pIC50 [4] | also measured
Cn1ccnc1C(=O)NCc1ccc(N2C(=O)N(c3ccc(C#N)c(C(F)(F)F)c3)C(=O)C2(C)C)cc1F [Compound 1] | < 5.00 | 6.01 |  |  |  | 
Cn1ccnc1C(=O)NCc1ccc(N2C(=S)N(c3ccc(C#N)c(C(F)(F)F)c3)C(=O)C2(C)C)cc1F [Compound 4] | < 5.00 | 6.41 |  |  |  | 
CC(C)(C)C(=O)NCc1ccc(N2C(=S)N(c3ccc(C#N)c(C(F)(F)F)c3)C(=O)C2(C)C)cc1F [Compound 6] | < 5.00 | 6.11 | 79 | 101 | < 5.00 | 
Cc1ncsc1C(=O)NCc1ccc(N2C(=S)N(c3ccc(C#N)c(C(F)(F)F)c3)C(=O)C2(C)C)cc1F [Compound 9] | < 5.00 | 7.31 | 89 | 27 |  | cell proliferation, % of vehicle at 3 μM ([5]; COS-7, 3 μM): 92%; cell proliferation, % of vehicle at 10 μM ([5]; COS-7, 10 μM): 99%; cell proliferation, % of vehicle at 3 μM ([6]; 22RV1, 3 μM): 77%; cell proliferation, % of vehicle at 10 μM ([6]; 22RV1, 10 μM): 41%; GR antagonist assay, % of vehicle [4]: 41%; cell proliferation, % of vehicle at 3 μM ([7]; 3 μM): 53%; cell proliferation, % of vehicle at 10 μM ([7]; 10 μM): 29%; cell proliferation, % of vehicle at 3 μM ([8]; 3 μM): 55%; cell proliferation, % of vehicle at 10 μM ([8]; 10 μM): 21%; AR localization (cytoplasmic or nuclear) ([9]; COS cells, GFP-AR, 30 min pre-treatment, then R1881 for four hours): nuclear
CC1(C)C(=O)N(c2ccc(C#N)c(C(F)(F)F)c2)C(=S)N1c1ccc(CNC(=O)c2cccnc2)c(F)c1 [Compound 12] | < 5.00 | 6.97 | 95 | 61 | < 5.00 | 
CC1(C)C(=O)N(c2ccc(C#N)c(C(F)(F)F)c2)C(=S)N1c1ccc(CNC(=O)c2cncs2)cc1 [Compound 18] | < 5.00 | 6.45 |  |  | < 5.00 | 
CC1(C)C(=O)N(c2ccc(C#N)c(C(F)(F)F)c2)C(=S)N1c1ccc(CNC(=O)c2ncccn2)cc1 [Compound 19] | < 5.00 | 6.34 |  |  | < 5.00 | 
Cc1ncsc1C(=O)NCc1ccc(N2C(=S)N(c3cnc(C#N)c(C(F)(F)F)c3)C(=O)C2(C)C)cc1Cl [Compound 38] |  | 6.62 | 59 | 56 | < 5.00 | 
Cc1ncsc1C(=O)NCc1ccc(N2C(=S)N(c3ccc(C#N)c(C(F)(F)F)c3)C(=O)C2(C)C)cc1 [Compound 39] |  | 6.70 | 90 | 87 | < 5.00 | 
Cn1nccc1C(=O)NCc1ccc(N2C(=S)N(c3ccc(C#N)c(C(F)(F)F)c3)C(=O)C2(C)C)cc1F [Compound 42] |  | 7.11 | 98 | 60 | < 5.00 | inhibition at 1 µM [2]: 95%
Cn1cncc1C(=O)NCc1ccc(N2C(=S)N(c3ccc(C#N)c(C(F)(F)F)c3)C(=O)C2(C)C)cc1F [Compound 44] |  | 6.92 | 87 | 71 | < 5.00 | 
Cc1ncc(C(=O)NCc2ccc(N3C(=S)N(c4ccc(C#N)c(C(F)(F)F)c4)C(=O)C3(C)C)cc2F)s1 [Compound 45] |  | 7.00 | 100 | 66 | < 5.00 | inhibition at 1 µM [2]: 95%
CC1(C)C(=O)N(c2ccc(C#N)c(C(F)(F)F)c2)C(=S)N1c1ccc(CNC(=O)c2cnco2)c(F)c1 [Compound 60] |  | 6.94 | 75 | 96 | < 5.00 | 
Cc1ncsc1C(=O)NCc1ccc(N2C(=S)N(c3ccc(C#N)c(C(F)(F)F)c3)C(=O)C23CCC3)cc1F [Compound 65] |  | 7.19 | 94 | 83 | < 5.00 | 
Cc1ncsc1C(=O)NCc1ccc(N2C(=S)N(c3ccc(C#N)c(F)c3)C(=O)C2(C)C)cc1F [Compound 68] |  | 6.92 | 89 | 85 |  | GR antagonist assay, % of vehicle [4]: 84%
CC1(C)C(=O)N(c2ccc(C#N)c(F)c2)C(=S)N1c1ccc(CNC(=O)c2ccccn2)c(F)c1 [Compound 69] |  | 6.42 | 77 | 81 | < 5.00 | 
Cc1ccccc1C(=O)NCc1ccc(N2C(=S)N(c3ccc(C#N)c(F)c3)C(=O)C2(C)C)cc1F [Compound 71] |  | 6.23 | 86 | 81 | < 5.00 | 
Cn1nccc1C(=O)NCc1ccc(N2C(=S)N(c3ccc(C#N)c(C(F)(F)F)c3)C(=O)C23CCC3)cc1F [Compound 73] |  | 7.04 | 79 | 66 | 5.53 | 
Cc1ncsc1C(=O)NCc1ccc(N2C(=S)N(c3cccc(C(F)(F)F)c3)C(=O)C2(C)C)cc1F [Compound 76, N-(4-(5,5-dimethyl-4-oxo-2-thioxo-3-(3-(trifluoromethyl)phenyl)-imidazolidin-1-yl)-2-fluorobenzyl)-4-methylthiazole-5-carboxamide] |  | < 5.00 | 72 | 88 | 5.48 | 
C[C@]1(O)CC[C@H]2[C@@H]3CCC4=CC(=O)CCC4=C3C=C[C@@]21C [Compound R1881, reference compound] |  |  |  |  |  | AR localization (cytoplasmic or nuclear) [9]: nuclear
CNC(=O)c1ccc(N2C(=S)N(c3ccc(C#N)c(C(F)(F)F)c3)C(=O)C2(C)C)cc1F [Enzalutamide, enzalutamide] |  |  |  |  |  | TMPRSS2 expression [10]: inhibitory effects; TMPRSS2 expression [11]: failed to reduce TMPRSS2 expression
